# Measured values published in article PMC3823043 (Journal of Cellular and Molecular Medicine, 2008).
# Target: delta opioid receptor (DOR), murine, wild-type (Mus musculus, UniProt P32300)
# Assay: [3H]naltrindole radioligand binding
# Conditions: labelled compound; HEK293 DOR clone; no affinity constant printed
# Chain of delta opioid receptor (DOR), murine, wild-type (P32300 whole entry): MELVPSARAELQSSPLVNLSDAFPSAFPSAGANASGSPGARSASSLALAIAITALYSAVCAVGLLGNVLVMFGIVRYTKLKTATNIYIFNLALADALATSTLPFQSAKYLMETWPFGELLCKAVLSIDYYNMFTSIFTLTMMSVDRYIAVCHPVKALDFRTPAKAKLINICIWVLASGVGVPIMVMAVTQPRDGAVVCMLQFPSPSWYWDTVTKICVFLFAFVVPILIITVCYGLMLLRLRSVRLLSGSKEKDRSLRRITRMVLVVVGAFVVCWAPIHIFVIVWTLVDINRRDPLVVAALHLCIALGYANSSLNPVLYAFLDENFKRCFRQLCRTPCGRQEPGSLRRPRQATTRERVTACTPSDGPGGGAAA
smiles,measurement,value
Oc1ccc2c3c1O[C@H]1c4[nH]c5ccccc5c4C[C@@]4(O)[C@@H](C2)N(CC2CC2)CC[C@]314 [[3H]naltrindole],[3H]naltrindole radioligand binding,Receptor expression levels in DOR clones was assessed by means of [^3H]Naltrindole binding
